Laboratory results published in USRE38167E1, “Weight reduction method for cats and other pets” (International Flora Technologies Ltd, priority 1996, dated 2003).

Assay: Cat free-choice feeding study: daily food intake
Format: in vivo
Settings: overweight cats
Description: All feeding studies were conducted from Feb. 26, 1998 to Sep. 17, 1998 at Summit Ridge Farms, Susquehanna, Pa. All were adult domestic short-haired cats. Most were quite old, as they had been in the colony 3 to 14 years and were thought to have been 1 to 4 years of age when they were obtained (Table 11). Just before beginning the study, all cats were given a thorough physical examination by a veterinarian. […] Each cat's current and estimated optimum weight were determined during this exam. […] All cats were housed individually with 12 hr light and dark cycles, and at a temperature of 60 to 85° F. and humidity of 30 to 70%. Food bowls, water bowls and litter boxes were emptied and sanitized daily. Water and the diet being fed were always available for free choice consumption except the night before the cats were to be weighed, when food bowls were removed. The amount of diet consumed was recorded, diet uneaten discarded and fresh diet fed daily. Weekly, following an overnight (14-hr) fast, each cat was weighed. Each cat was initially fed the non-jojoba containing diet FC-0 for 4 weeks, or until it was 14% or more over its estimated optimum weight, at which time it was fed either the diet containing 4% (FC-2) or 8% (FC-3) jojoba. Cats whose weight decreased by more than 4.6% in 1 week, or 6% in 2 weeks, were changed to the next lower jojoba-containing diet. […] When a cat was within 2.0% of its optimum weight, it was changed to a lower jojoba-containing diet; either that containing 2% or 4% (FC-1 or FC-2). If optimum body weight wasn't maintained when this diet was fed, the cat was changed to a higher jojoba-containing diet if it had gained weight and a lower jojoba-containing diet if it had lost weight. When the cat's weight had been maintained within 4% of its optimum for 4 weeks while eating the same diet, it was given a thorough physical exam by a veterinarian and removed from the study.

In the case of `CO[C@H]1[C@@H](OC)C[C@@H](O[C@@H]2O[C@H](CO)[C@@H](O)[C@H](O)[C@H]2O)/C(=C\C#N)[C@@H]1O` [Simmondsin, simmondsin], the “Percent Decrease in Food Intake” value (0.12% bioactive simmondsin activity in diet) is reported as 17.8%, the “Percent Decrease in Food Intake” value (0.24% bioactive simmondsin activity in diet) is reported as 30.7% and the “Percent Decrease in Food Intake” value (0.49% bioactive simmondsin activity in diet) is reported as 45.9%. For the same molecule, the “Percent Decrease in Food Intake” value (0.73% bioactive simmondsin activity in diet) was 49.2%.
